Source: patent US20250188092A1, “RIFAMYCIN ANALOGS” (THE REGENTS OF THE UNIVERSITY OF MICHIGAN, priority 2021, published 2025)
Converted amounts (≈) assume the structure as drawn. Read-outs that look alike come from different tables or passages of the source.

Key:
MTB H37Rv ATCC 27294 = experiment: MIC, microplate Alamar Blue assay (MABA); format: cell-based, Mycobacterium tuberculosis; details: for MIC90: MTB H37Rv ATCC 27294, microplate Alamar Blue assay, lowest concentration giving ≥90% reduction in fluorescence
VERO cells (ATCC CRL-81) = experiment: Vero cell toxicity; format: cell-based; details: 72 hours exposure
Method: Cytotoxicity for a mammalian cell line was determined by exposing VERO cells (ATCC CRL-81) to serial dilutions of test compounds for 72 hours, followed by addition of resazurin and measurement of fluorescence after 4 hours incubation (Choules, et al., Antimnicrob. Agents Chemother. 2019, 63, e02204-02218).

SMILES | DPX2 Viability @ 6.25 μM (DPX2 cells; 24 h) [%] | DPX2 Viability @ 25 μM (DPX2 cells; human) [%] | MIC90 MABA Rel to RMP (MTB H37Rv ATCC 27294) | MIC90 (MTB H37Rv ATCC 27294; Mycobacterium tuberculosis) [nM] | IC50 (VERO cells (ATCC CRL-81)) [µM] | MIC90 (MTB H37Rv ATCC 27294) [nM] | DPX2 Viability @ 6.25 μM (DPX2 cells; human, 24 h) [%] | DPX2 Viability @ 25 μM (DPX2 cells; human, 24 h, 25 μM) [%]
CO[C@H]1/C=C/O[C@@]2(C)Oc3c(C)c(O)c4c(=O)c(c5oc6cc(N7CCN(CC(C)C)CC7)cc(N7CCN(CC(C)C)CC7)c6nc-5c4c3C2=O)NC(=O)/C(C)=C\C=C\[C@H](C)[C@H](O)[C@@H](C)[C@@H](O)[C@@H](C)[C@H](OC(C)=O)[C@@H]1C [Compound 17u, 7S,9E,11S,12R,13S,14R,15R,16R,17S,18S,19E,21Z)-2,15,17-trihydroxy-11-methoxy-3,7,12,14,16,18,22-heptamethyl-30,32-bis[4-(2-methylpropyl)piperazin-1-yl]-6,23,37-trioxo-8,27,38-trioxa-24,34-diazahexacyclo[23.11.1.1^4,7.0^5,36.0^26,35.0^28,33]octatriaconta-1,3,5(36)9,19,21,25,28,30,32,34-undecaen-13-yl acetate] | 106 | 90 |  |  |  |  |  | 
CO[C@H]1/C=C/O[C@@]2(C)Oc3c(C)c(O)c4c(=O)c(c5oc6cc(N7CCN(CCn8ccnc8)CC7)cc(C)c6nc-5c4c3C2=O)NC(=O)/C(C)=C\C=C\[C@H](C)[C@H](O)[C@@H](C)[C@@H](O)[C@@H](C)[C@H](OC(C)=O)[C@@H]1C [Compound 26c, (7S,9E,11S,12R,13S,14R,15R,16R,17S,18S,19E,21Z)-2,15,17-trihydroxy-30-{4-[2-(1H-imidazol-1-yl)ethyl]piperazin-1-yl}-11-methoxy-3,7,12,14,16,18,22,32-octamethyl-6,23,37-trioxo-8,27,38-trioxa-24,34-diazahexacyclo[23.11.1.1^4,7.0^5,36.0^26,35.0^28,33]octatriaconta-1(36)2,4,9,19,21,25,28,30,32,34-undecaen-13-yl acetate] | 108 | 96 |  |  |  |  |  | 
CO[C@H]1/C=C/O[C@@]2(C)Oc3c(C)c(O)c4c(=O)c(c5oc6cc(N7CCN(C(C)=O)CC7)cc(C)c6nc-5c4c3C2=O)NC(=O)/C(C)=C\C=C\[C@H](C)[C@H](O)[C@@H](C)[C@@H](O)[C@@H](C)[C@H](OC(C)=O)[C@@H]1C [Compound 26d, (7S,9E,11S,12R,13S,14R,15R,16R,17S,18S,19E,21Z)-30-(4-Acetylpiperazin-1-yl)-2,15,17-trihydroxy-11-methoxy-3,7,12,14,16,18,22,32-octamethyl-6,23,37-trioxo-8,27,38-trioxa-24,34-diazahexacyclo[23.11.1.1^4,7.0^5,36.0^26,35.0^28,33]octatriaconta-1(36)2,4,9,19,21,25,28,30,32,34-undecaen-13-yl acetate] | 106 | 88 | 0.35 | 9.4 |  |  |  | 
CCC(=O)N1CCN(c2cc(C)c3nc4c5c6c7c(C)c(O)c5c(=O)c(c-4oc3c2)NC(=O)/C(C)=C\C=C\[C@H](C)[C@H](O)[C@@H](C)[C@@H](O)[C@@H](C)[C@H](OC(C)=O)[C@H](C)[C@@H](OC)/C=C/O[C@@](C)(O7)C6=O)CC1 [Compound 26e, (7S,9E,11S,12R,13S,14R,15R,16R,17S,18S,19E,21Z)-2,15,17-Trihydroxy-11-methoxy-3,7,12,14,16,18,22,32-octamethyl-6,23,37-trioxo-30-(4-propanoylpiperazin-1-yl)-8,27,38-trioxa-24,34-diazahexacyclo[23.11.1.1^4,7.0^5,36.0^26,35.0^28,33]octatriaconta-1(36)2,4,9,19,21,25,28,30,32,34-undecaen-13-yl acetate] | 101 | 97 | 0.35 | 9.4 |  |  |  | 
CO[C@H]1/C=C/O[C@@]2(C)Oc3c(C)c(O)c4c(=O)c(c5oc6cc(N7CCN(C(=O)C(C)(C)C)CC7)cc(C)c6nc-5c4c3C2=O)NC(=O)/C(C)=C\C=C\[C@H](C)[C@H](O)[C@@H](C)[C@@H](O)[C@@H](C)[C@H](OC(C)=O)[C@@H]1C [Compound 26f, (7S,9E,11S,12R,13S,14R,15R,16R,17S,18S,19E,21Z)-30-[4-(2,2-Dimethylpropanoyl)piperazin-1-yl]-2,15,17-trihydroxy-11-methoxy-3,7,12,14,16,18,22,32-octamethyl-6,23,37-trioxo-8,27,38-trioxa-24,34-diazahexacyclo[23.11.1.1^4,7.0^5,36.0^26,35.0^28,33]octatriaconta-1(36)2,4,9,19,21,25,28,30,32,34-undecaen-13-yl acetate] | 111 | 102 | 0.17 | 4.6 |  |  |  | 
COC(=O)N1CCN(c2cc(C)c3nc4c5c6c7c(C)c(O)c5c(=O)c(c-4oc3c2)NC(=O)/C(C)=C\C=C\[C@H](C)[C@H](O)[C@@H](C)[C@@H](O)[C@@H](C)[C@H](OC(C)=O)[C@H](C)[C@@H](OC)/C=C/O[C@@](C)(O7)C6=O)CC1 [Compound 26g, Methyl 4-[(7S,9E,11S,12R,13S,14R,15R,16R,17S,18S,19E,21Z)-13-(acetyloxy)-2,15,17-trihydroxy-11-methoxy-3,7,12,14,16,18,22,32-octamethyl-6,23,37-trioxo-8,27,38-trioxa-24,34-diazahexacyclo[23.11.1.1^4,7.0^5,36.0^26,35.0^28,33]octatriaconta-1(36)2,4,9,19,21,25,28,30,32,34-undecaen-30-yl]piperazine-1-carboxylate] | 111 | 105 | 0.18 | 5 (≈ 4.71 ng/mL) |  |  |  | 
CCOC(=O)N1CCN(c2cc(C)c3nc4c5c6c7c(C)c(O)c5c(=O)c(c-4oc3c2)NC(=O)/C(C)=C\C=C\[C@H](C)[C@H](O)[C@@H](C)[C@@H](O)[C@@H](C)[C@H](OC(C)=O)[C@H](C)[C@@H](OC)/C=C/O[C@@](C)(O7)C6=O)CC1 [Compound 26h, Ethyl 4-[(7S,9E,11S,12R,13S,14R,15R,16R,17S,18S,19E,21Z)-13-(acetyloxy)-2,15,17-trihydroxy-11-methoxy-3,7,12,14,16,18,22,32-octamethyl-6,23,37-trioxo-8,27,38-trioxa-24,34-diazahexacyclo[23.11.1.1^4,7.0^5,36.0^26,35.0^28,33]octatriaconta-1(36)2,4,9,19,21,25,28,30,32,34-undecaen-30-yl]piperazine-1-carboxylate] | 118 | 110 | 0.18 | 4.9 (≈ 4.68 ng/mL) |  |  |  | 
CO[C@H]1/C=C/O[C@@]2(C)Oc3c(C)c(O)c4c(=O)c(c5oc6cc(N7CCN(C(=O)OC(C)(C)C)CC7)cc(C)c6nc-5c4c3C2=O)NC(=O)/C(C)=C\C=C\[C@H](C)[C@H](O)[C@@H](C)[C@@H](O)[C@@H](C)[C@H](OC(C)=O)[C@@H]1C [Compound 26i, tert-Butyl 4-[(7S,9E,11S,12R,13S,14R,15R,16R,17S,18S,19E,21Z)-13-(acetyloxy)-2,15,17-trihydroxy-11-methoxy-3,7,12,14,16,18,22,32-octamethyl-6,23,37-trioxo-8,27,38-trioxa-24,34-diazahexacyclo[23.11.1.1^4,7.0^5,36.0^26,35.0^28,33]octatriaconta-1(36)2,4,9,19,21,25,28,30,32,34-undecaen-30-yl]piperazine-1-carboxylate] | 120 | 102 | 0.17 | 4.7 (≈ 4.62 ng/mL) |  |  |  | 
CO[C@H]1/C=C/O[C@@]2(C)Oc3c(C)c(O)c4c(=O)c(c5oc6cc(N7CCN(CCCCCCO[C@@H]8COc9nc([N+](=O)[O-])cn9C8)CC7)cc(C)c6nc-5c4c3C2=O)NC(=O)/C(C)=C\C=C\[C@H](C)[C@H](O)[C@@H](C)[C@@H](O)[C@@H](C)[C@H](OC(C)=O)[C@@H]1C [Compound 29e, (7S,9E,11S,12R,13S,14R,15R,16R,17S,18S,19E,21Z)-2,15,17-Trihydroxy-11-methoxy-3,7,12,14,16,18,22,32-octamethyl-30-[4-(6-{[(6S)-2-nitro-5H,6H,7H-imidazo[2,1-b][1,3]oxazin-6-yl]oxy}hexyl)piperazin-1-yl]-6,23,37-trioxo-8,27,38-trioxa-24,34-diazahexacyclo[23.11.1.1^4,7.0^5,36.0^26,35.0^28,33]octatriaconta-1(36)2,4,9,19,21,25,28,30,32,34-undecaen-13-yl acetate] | 112 | 99 | 0.07 | 2 |  |  |  | 
CO[C@H]1/C=C/O[C@@]2(C)Oc3c(C)c(O)c4c(=O)c(c5oc6cc(C=O)cc(N7CCN(C)CC7)c6nc-5c4c3C2=O)NC(=O)/C(C)=C\C=C\[C@H](C)[C@H](O)[C@@H](C)[C@@H](O)[C@@H](C)[C@H](OC(C)=O)[C@@H]1C [Compound 30b, (7S,9E,11S,12R,13S,14R,15R,16R,17S,18S,19E,21Z)-30-Formyl-2,15,17-trihydroxy-11-methoxy-3,7,12,14,16,18,22-heptamethyl-32-(4-methylpiperazin-1-yl)-6,23,37-trioxo-8,27,38-trioxa-24,34-diazahexacyclo[23.11.1.1^4,7.0^5,36.0^26,35.0^28,33]octatriaconta-1(36)2,4,9,19,21,25,28,30,32,34-undecaen-13-yl acetate] |  |  | 1.37 |  | > 8 | 37 |  | 
CO[C@H]1/C=C/O[C@@]2(C)Oc3c(C)c(O)c4c(c3C2=O)C2=NC3(CCN(CC(C)C)CC3)NC2=C(NC(=O)/C(C)=C\C=C\[C@H](C)[C@H](O)[C@@H](C)[C@@H](O)[C@@H](C)[C@H](OC(C)=O)[C@@H]1C)C4=O [RFB, rifabutin, reference compound] |  |  | 0.09 | 2.4 (≈ 2.03 ng/mL) |  |  | 117 | 107
